{"source": "patent US20170029531A1", "about": "“INHIBITION OF LACTATE DEHYDROGENASE 5 (LDH-5) BINDING, INCORPORATION, INTERNALIZATION AND/OR ENDOCYTOSIS TO IMMUNE CELLS” (Seattle Children's Hospital (dba Seattle Children's …, priority 2014, published 2017)", "key": {"[1]": {"target": "MHC class I polypeptide-related sequence B (MICB) on monocytes (human) (UniProt Q29980)", "sequence (Q29980 23-383)": "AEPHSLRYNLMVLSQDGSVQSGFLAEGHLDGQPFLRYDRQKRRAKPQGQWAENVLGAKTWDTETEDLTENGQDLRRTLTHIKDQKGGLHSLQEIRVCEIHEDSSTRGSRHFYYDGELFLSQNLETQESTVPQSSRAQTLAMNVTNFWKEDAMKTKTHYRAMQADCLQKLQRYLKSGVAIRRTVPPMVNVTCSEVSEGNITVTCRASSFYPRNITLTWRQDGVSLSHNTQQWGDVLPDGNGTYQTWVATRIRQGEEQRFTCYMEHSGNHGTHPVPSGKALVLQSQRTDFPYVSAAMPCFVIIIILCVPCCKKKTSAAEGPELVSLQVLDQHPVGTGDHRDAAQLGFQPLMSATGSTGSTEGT", "experiment": "cell-based or functional assay"}, "[2]": {"target": "UL16-binding protein 1 (ULBP1) on monocytes (human) (UniProt Q9BZM6)", "sequence (Q9BZM6 26-216)": "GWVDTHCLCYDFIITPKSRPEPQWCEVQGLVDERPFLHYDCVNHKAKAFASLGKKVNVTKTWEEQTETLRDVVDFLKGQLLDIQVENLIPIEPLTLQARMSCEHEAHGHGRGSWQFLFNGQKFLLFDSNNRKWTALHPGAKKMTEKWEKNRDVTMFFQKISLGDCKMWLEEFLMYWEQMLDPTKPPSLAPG", "experiment": "cell-based or functional assay"}, "primary human NK cells": {"system": "primary human NK cells", "experiment": "NKG2D expression and CD107a degranulation of primary human NK cells after incubation with LDH or lactate", "type": "cell-based", "conditions": "LDH 50 ug/mL or lactate 20 mM; 12 hour (NKG2D, NKp46) or 6 hour after IL-2 (CD107a)", "description": "FIG. 2. Biochemical purification of tumor-derived Lactate Dehydrogenase, expression in glioma cell lines and verification of LDH-mediated induction of NKG2D ligands on monocytes. (Panel A) Protein purification strategy. […] of U87 glioblastoma cell line supernatant were subjected to ammonium sulfate precipitation. Active fractions were passed over a phenyl Sepharose column and active fractions were then subjected to size exclusion (Superdex 200), followed by ion exchange (MonoS) before Mass Spectroscopy (MS) analysis. (Panel B) Following separation by chromatography, fractions were dialyzed into PBS and cultured with MHD (healthy monocytes) for 18 hours. Whole cell mRNA was reverse transcribed, and induction of MICB and ULBP-1 was analyzed relative to media alone controls. […] (Panel C) mRNA isolated from PBMC of healthy donors, 293T cells (as negative controls), and U87, U251, and SF767 glioma cell lines were analyzed for expression of LDHA and LDHB by qPCR. (Panel D) A 1:10 dilution of fresh, unfrozen glioblastoma cell line supernatants was analyzed for total LDH enzymatic activity and expressed as OD 495 nm. […] Eighteen hours later, mRNA was isolated and analyzed for MICA, MICB, and ULBP-1 by qPCR. […] Eighteen hours later, mRNA was isolated and analyzed for MICA, MICB and ULBP-1 by qPCR. […] Eighteen hours later, MICB (black bars) and ULBP-1 (gray bars) were measured by qPCR. […]"}, "U87": {"system": "U87", "experiment": "U87 uptake of fluorescently labeled LDH5, flow cytometry", "type": "cell-based", "experimental": "FIG. 26. U87 uptake. […] Fluorescently labeled LDH5 and Transferrin were pre-incubated with anti-LDHa at equilmolar concentrations. The antibody protein combination were then fed to U87 for 30 min. Cells were then trypsinized, acid washed, fixed in 2% PFA. Fluorescence intensity was obtained by flow cytometry. Anti-LDHa blocks uptake by approximately 50%, but has no effect on Transferrin uptake. N=2, p<0.05.\nFIG. 27. U87 uptake. […] Fluorescently labeled LDH5 and Transferrin were incubated with U87 in the presence or absence of 20 mM oxamate for 30 min. Cells were then trypsinized, acid washed, fixed in 2% PFA. Fluorescence intensity was obtained by flow cytometry. N=1.\nFIG. 28. U87 uptake. […] Fluorescently labeled LDH5 and Transferrin were incubated with U87 in the presence or absence of equimolar MDH for 30 min. Cells were then trypsinized, acid washed, fixed in 2% PFA. Fluorescence intensity was obtained by flow cytometry. N=1.\nFIG. 29. U87 uptake. […] Cells were pre-incubated with 30 uM Dyngo 4a or 18 uM Pitstop. Fluorescently labeled LDH5 was then added for 30 min. Cells were then trypsinized, acid washed, fixed in 2% PFA. Fluorescence intensity was obtained by flow cytometry.\nExperimental wells were pulsed with 10 ug/mL LDH-A488 for 30 min or 24 hours as indicated (control wells received no LDH) at 37° C. Cells were treated for 2 min with 0.5M acetic acid+150 mM NaCl (pH 2.5), followed by 4 subsequent washes in RPMI+10% FBS. […] (See FIGS. 26-29)."}, "[3]": {"system": "monocytes, or monocyte derived macrophages", "experiment": "Uptake of fluorescently labeled LDH5 by monocytes / monocyte derived macrophages (CD14+ cells), flow cytometry", "type": "cell-based, human", "conditions": "monocyte derived macrophages pre-incubated with 25 uM chlorpromazine for 30 min, labeled LDH5 for a further 30 min; N=2", "experimental": "FIG. 23. […] Fluorescently labeled LDH5 was pre-incubated with anti-LDHa at equilmolar concentrations. The antibody protein combination was then fed to monocytes, or monocyte derived macrophages for 30 min. Cells were then trypsinized, acid washed, fixed in 2% PFA. Fluorescence intensity was obtained by flow cytometry. Anti-LDHa blocks uptake by approximately 50%. Macrophages N=1, Monocytes N=2.\nFIG. 24. […] Monocyte derived macrophages were pre-incubated with 25 uM chlorpromazine for 30 min. Fluorescently labeled LDH5 was then added for an additional 30 min. Cells were then trypsinized, acid washed, fixed in 2% PFA. Fluorescence intensity was obtained by flow cytometry. N=2\nFIG. 25. […] Fluorescently labeled LDH5 was incubated with U87 in the presence or absence of equimolar MDH for 30 min. Cells were then trypsinized, acid washed, fixed in 2% PFA. Fluorescence intensity was obtained by flow cytometry. N=2.\nIn an experiment utilizing the antibody with LDH5 in serum, the LDH5 complexed to the antibody was added to macrophages and to a sample of monocytes. […] Monocyte derived macrophages were pre-incubated with 25 uM chlorpromazine for 30 min. […] Fluorescence intensity was obtained by flow cytometry. […] Fluorescence intensity was obtained by flow cytometry. Cells exposed to LDH5-A488 were compared to cells without and amount of fluorescence was determined to represent amount of LDH5 inside of the cell."}, "Tumor cells": {"system": "Tumor cells", "experiment": "LDH-5 internalization by tumor cells, flow cytometry (FIGS. 16-19)", "type": "cell-based", "conditions": "sodium oxamate, FIG. 18", "experimental": "FIG. 17. Tumor cells internalize LDH-5, which can be reduced by antibody blocking. 10 ug/ml of LDH5 specific monoclonal antibody was added to cells 1 hour prior to culture with LDH5 as described above and evaluated for internalization using flow cytometry to evaluate fluorescence.\nFIG. 19. LDH-5 internalization is receptor mediated and Clathrin dependent. LDH5 internalization is reduced with receptor mediated endocytosis inhibitors.\nLDH5 internalization is reduced with receptor mediated endocytosis inhibitors. This supports that internalization is mediated by a specific receptor, as opposite to bulk phagocytosis."}, "[4]": {"system": "monocytes from healthy donors", "experiment": "NKG2D ligand (MICA, MICB, ULBP-1) mRNA induction in monocytes from healthy donors (MHD), qPCR", "type": "cell-based, human", "conditions": "U87 supernatant with sodium oxamate (100 mM in FIG. 2 panel E; 20 mM in the LDH inhibition method); 18 h; qPCR", "description": "FIG. 2. Biochemical purification of tumor-derived Lactate Dehydrogenase, expression in glioma cell lines and verification of LDH-mediated induction of NKG2D ligands on monocytes. (Panel A) Protein purification strategy. […] of U87 glioblastoma cell line supernatant were subjected to ammonium sulfate precipitation. Active fractions were passed over a phenyl Sepharose column and active fractions were then subjected to size exclusion (Superdex 200), followed by ion exchange (MonoS) before Mass Spectroscopy (MS) analysis. (Panel B) Following separation by chromatography, fractions were dialyzed into PBS and cultured with MHD (healthy monocytes) for 18 hours. Whole cell mRNA was reverse transcribed, and induction of MICB and ULBP-1 was analyzed relative to media alone controls. Western blot analysis using a monoclonal antibody to LDH-5 (ab101562) was performed on […] of total protein to confirm the presence of LDH-5 in the active fractions. (Panel C) mRNA isolated from PBMC of healthy donors, 293T cells (as negative controls), and U87, U251, and SF767 glioma cell lines were analyzed for expression of LDHA and LDHB by qPCR. (Panel D) A 1:10 dilution of fresh, unfrozen glioblastoma cell line supernatants was analyzed for total LDH enzymatic activity and expressed as OD 495 nm. (Panel E) Validation of LDH induction of NKG2D ligands in monocytes. Six hundred twenty five U/L of purified, native LDH-5, fresh U87 supernatant, or fresh U87 supernatant in the presence of 100 mM sodium oxamate (NaOx) were cultured with MHD. Eighteen hours later, mRNA was isolated and analyzed for MICA, MICB, and ULBP-1 by qPCR. Values represent induction relative to MHD cultured in media alone. (Panel F) Fresh U87 supernatant, 625 U/L of purified, native LDH-5, LDH-5+0.5 mM Pyruvate (Pyr), or LDH-5+0.5 mM pyruvate and 100 mM NaOx were cultured with MHD. Eighteen hours later, mRNA was isolated and analyzed for MICA, MICB and ULBP-1 by qPCR. Values represent induction relative to MHD cultured in media alone. (Panel G) MHD were cultured with native LDH-5 isolated from liver cells. Eighteen hours later, MICB (black bars) and ULBP-1 (gray bars) were measured by qPCR. (Panel H) Expression of NKG2D and NKp46 on primary human NK cells following a 12 hour incubation with LDH (50 ug/mL) or lactate (20 mM). Cells were surface stained with antibodies directed against CD3, CD56, NKG2D, and NKp46 and analyzed by flow cytometry. The expression level of NKG2D and NKp46 are plotted against CD56. (Panel I) Expression of CD107a on primary human NK cells following IL-2 (1000 U/ml) activation and a 6 hour incubation with LDH (50 ug/mL) or lactate (20 mM). Cells were surface stained with antibodies directed against CD3, CD56, and CD107a and analyzed by flow cytometry. Representative data are shown in the top panels, a summary of percent CD107a+NK cells is shown below. (Panel J) 293T cells were transiently transfected with a pcDNA3.1 (−) vector encoding either LDHA or LDHB, or both constructs. Supernatant was then cultured with CD14-positively selected MHD. Eighteen hours later, MICB and ULBP-1 were measured by qPCR. Values represent induction relative to monocytes cultured in media alone. *P<0.05, **P<0.01.\nFIG. 21. Purified native LDH5 or LDH1 was cultured with monocytes from healthy donors. Eighteen hours later, MICB and ULBP-1 were measured by qPCR. Values represent induction relative to monocytes cultured in medium alone. […]"}}, "data": [{"compound": "Natural killer group 2, member D (NKG2D) receptor on NK cells (from UniProt P26718 1-216)", "values": [{"measurement": "IFN-γ production by degranulating NK cells", "setting": "[1]", "result": 20.2, "unit": "%"}, {"measurement": "degranulation of IL-2-activated NK cells", "setting": "[1]", "result": 75.3, "unit": "%"}, {"measurement": "IFN-γ production by degranulating NK cells", "setting": "[2]", "result": 20.2, "unit": "%"}, {"measurement": "degranulation of IL-2-activated NK cells", "setting": "[2]", "result": 75.3, "unit": "%"}]}, {"compound": "CC(O)C(=O)O", "note": "(centres unmarked) [lactate]", "values": [{"measurement": "NK cell NKG2D expression or degranulation", "setting": "primary human NK cells", "result": "neither lactate nor LDH-5 alone directly impacted"}]}, {"compound": "O=C1N=C(NS(=O)(=O)c2cccc3ccccc23)SC1=Cc1ccc(Br)cc1", "note": "[Pitstop]", "values": [{"measurement": "LDH5 uptake, effect in words", "setting": "U87; U87 pre-incubated with 18 uM Pitstop, labeled LDH5 for 30 min", "result": "block LDH5 uptake"}]}, {"compound": "CN(C)CCCN1c2ccccc2Sc2ccc(Cl)cc21", "note": "[chlorpromazine]", "values": [{"measurement": "LDH5 uptake, effect in words", "setting": "[3]", "result": "blocks LDH5 uptake"}]}, {"compound": "NC(=O)C(=O)[O-].[Na+]", "note": "[Sodium oxamate, sodium oxamate, reference compound]", "values": [{"measurement": "LDH5 uptake, effect in words", "setting": "U87; U87, 20 mM oxamate, 30 min, N=1", "result": "blocks LDH5 uptake"}, {"measurement": "LDH-5 internalization in tumor cells, effect in words", "setting": "Tumor cells", "result": "reduces internalization"}, {"measurement": "Ability of U87 supernatant to induce NKG2D ligands (mRNA) on MHD", "setting": "[4]", "result": "significantly reduced"}]}, {"compound": "O=C(N/N=C/c1cc(O)c(O)cc1O)c1cc2ccccc2cc1O", "note": "[Dyngo 4a]", "values": [{"measurement": "LDH5 uptake, effect in words", "setting": "U87; U87 pre-incubated with 30 uM Dyngo 4a, labeled LDH5 for 30 min", "result": "block LDH5 uptake"}]}]}
